Assay results as given in patent publication US20250333397A1 (REMIX THERAPEUTICS INC., priority 2021, published 2025).
Like-named read-outs stand apart in the source and are kept apart here.

How the values were obtained:
Type in all cases: cell-based, human
HTT mRNA = experiment: RT-qPCR splicing assay, HTT canonical (CJ) and alternative (AJ) junction mRNA; settings: Homo sapiens; for AC50: read-out: HTT AJ (AC50, increase in AJ mRNA)
Summary of the method: (§1)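 A673 or K562 cells were treated 24 h at 37 °C with an 11-point 3-fold compound dilution series, top dose 10 uM final, DMSO ≤0.25%. Lysates went to one-step RT-qPCR for canonical (CJ) and alternative-exon (AJ) junctions; ΔCt vs GAPDH, GUSB or PPIA, normalized to DMSO, as 2^(-ΔΔCt).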

MYB mRNA = experiment: RT-qPCR splicing assay, MYB canonical (CJ) and alternative (AJ) junction mRNA; settings: Homo sapiens; for AC50: read-out: MYB AJ (AC50, increase in AJ mRNA)
Summary of the method: as §1

SMN2 mRNA = experiment: RT-qPCR splicing assay panel, SMN2 canonical junction (CJ) mRNA; settings: Homo sapiens, canonical junction (CJ) mRNA, RT-qPCR panel, Table 4A; read-out: SMN2, decrease in CJ mRNA levels, IC50
Summary of the method: as §1

Target C mRNA = experiment: RT-qPCR splicing assay panel, Target C canonical junction (CJ) mRNA; settings: Homo sapiens, canonical junction (CJ) mRNA, RT-qPCR panel, Table 4A; read-out: Target C, decrease in CJ mRNA levels, IC50
Summary of the method: as §1

[1] = 24 h, Table 3A, A673 or K562 cells, 24 h treatment
[2] = 24 h, Table 3A, A673 or K562 cells, 24 h treatment, read-out: HTT CJ (IC50, decrease in CJ mRNA)
[3] = canonical junction (CJ) mRNA, RT-qPCR panel, Table 4A, read-out: HTT, decrease in CJ mRNA levels, IC50
[4] = 24 h, Table 3A, A673 or K562 cells, 24 h treatment, read-out: MYB CJ (IC50, decrease in CJ mRNA)
[5] = canonical junction (CJ) mRNA, RT-qPCR panel, Table 4A, read-out: MYB, decrease in CJ mRNA levels, IC50

Compound	AC50 (HTT mRNA; [1])	IC50 (HTT mRNA; [2])	IC50 (HTT mRNA; [3])	AC50 (MYB mRNA; [1])	IC50 (MYB mRNA; [4])	IC50 (MYB mRNA; [5])	IC50 (SMN2 mRNA)	IC50 (Target C mRNA)
CCOc1cc(-c2ccc(-c3ccc(N4CC[C@@H](NC5CCC5)C4)nn3)c(O)c2)cnn1 [Compound 301]	> 10000 nM	> 10000 nM	> 10000 nM	> 10000 nM	> 10000 nM	> 10000 nM	1000 to 10000 nM	> 10000 nM
Cc1nc(C)c(-c2cc(O)c(-c3ccc(N4CC[C@@H](NC5CCC5)C4)nn3)cc2F)s1 [Compound 387]	1000 to 10000 nM	100 to 1000 nM	100 to 1000 nM	1000 to 10000 nM	1000 to 10000 nM	1000 to 10000 nM	100 to 1000 nM	1000 to 10000 nM
COc1cc(-c2cc(O)c(-c3ccc(N4CC[C@](C)(NCC5CC5)C4)nn3)cc2F)cnn1 [Compound 452, 2-{6-[(3S)-3-[(cyclopropylmethyl)amino]-3-methylpyrrolidin-1-yl]pyridazin-3-yl}-4-fluoro-5-(6-methoxypyridazin-4-yl)phenol]			< 100 nM			100 to 1000 nM	100 to 1000 nM	100 to 1000 nM
CC1(C)CC(Oc2nnc(-c3ccc(-c4cn[nH]c4)cc3O)cc2C#N)CC(C)(C)N1 [Compound 423]	1000 to 10000 nM	1000 to 10000 nM	1000 to 10000 nM	> 10000 nM	> 10000 nM	> 10000 nM	100 to 1000 nM	> 10000 nM
Oc1cc(-c2cn[nH]c2)ccc1-c1ccc(N2CCC(NCC3CC3)C2)nn1 (centres unmarked) [Compound 108, 2-(6-{3-[(cyclopropylmethyl)amino]pyrrolidin-1-yl}pyridazin-3-yl)-5-(1H-pyrazol-4-yl)phenol; methane]	< 100 nM	< 100 nM	< 100 nM	100 to 1000 nM	100 to 1000 nM	100 to 1000 nM	< 100 nM	100 to 1000 nM
COc1cc(-c2cc(O)c(-c3ccc(N4CC[C@H](NC(C)(C)C)C4)nn3)cc2F)cnn1 [Compound 211, 2-{6-[(3S)-3-(tert-butylamino)pyrrolidin-1-yl]pyridazin-3-yl}-4-fluoro-5-(6-methoxypyridazin-4-yl)phenol]	100 to 1000 nM	100 to 1000 nM	100 to 1000 nM	1000 to 10000 nM	1000 to 10000 nM	1000 to 10000 nM	< 100 nM	100 to 1000 nM
Cc1ncc(-c2cc(O)c(-c3ccc(N4CC[C@@H](NCC5CCC5)C4)nn3)cc2F)s1 [Compound 395]	100 to 1000 nM	< 100 nM	< 100 nM	100 to 1000 nM	100 to 1000 nM	100 to 1000 nM	< 100 nM	100 to 1000 nM
COc1cc(-c2ccc(-c3ccc(N4CC[C@@H](N[C@H]5C[C@@H](F)C5)C4)nn3)c(O)c2)ncn1 [Compound 408, 5-(6-methoxypyrimidin-4-yl)-2-{6-[(3S)-3-{[(1s,3s)-3-fluorocyclobutyl]amino}pyrrolidin-1-yl]pyridazin-3-yl}phenol]	100 to 1000 nM	< 100 nM	< 100 nM	100 to 1000 nM	100 to 1000 nM	100 to 1000 nM	< 100 nM	100 to 1000 nM
COc1nccc(-c2ccc(-c3ccc(N4CCC(NCC5CC5)C4)nn3)c(O)c2)n1 (centres unmarked) [Compound 368]	100 to 1000 nM	100 to 1000 nM	100 to 1000 nM	1000 to 10000 nM	1000 to 10000 nM	1000 to 10000 nM	100 to 1000 nM	1000 to 10000 nM
Cc1nc(F)c(-c2cc(O)c(-c3ccc(N4CCC(NC5CCC5)C4)nn3)cc2F)s1 (centres unmarked) [Compound 378]	100 to 1000 nM	100 to 1000 nM	100 to 1000 nM	1000 to 10000 nM	1000 to 10000 nM	1000 to 10000 nM	100 to 1000 nM	1000 to 10000 nM
COc1cc(-c2cc(O)c(-c3ccc(N4CCC(C)(NC5CCC5)C4)nn3)cc2F)cnn1 (centres unmarked) [Compound 310, 2-{6-[3-(cyclobutylamino)-3-methylpyrrolidin-1-yl]pyridazin-3-yl}-4-fluoro-5-(6-methoxypyridazin-4-yl)phenol]	100 to 1000 nM	< 100 nM	< 100 nM	100 to 1000 nM	100 to 1000 nM	100 to 1000 nM	< 100 nM	100 to 1000 nM
COc1cc(-c2cc(O)c(-c3ccc(N4CC[C@@](C)(NC5CCC5)C4)nn3)cc2F)cnn1 (single isomer, unassigned) [Compound 308, 2-{6-[3-(cyclobutylamino)-3-methylpyrrolidin-1-yl]pyridazin-3-yl}-4-fluoro-5-(6-methoxypyridazin-4-yl)phenol]	100 to 1000 nM	< 100 nM	< 100 nM	100 to 1000 nM	1000 to 10000 nM	1000 to 10000 nM	< 100 nM	100 to 1000 nM
COc1cc(-c2ccc(-c3ccc(N4CCC(NC(C)(C)C)C4=O)nn3)c(O)c2)cnn1 (centres unmarked) [Compound 219, 3-(tert-butylamino)-1-{6-[2-hydroxy-4-(6-methoxypyridazin-4-yl)phenyl]pyridazin-3-yl}pyrrolidin-2-one]	1000 to 10000 nM	1000 to 10000 nM	1000 to 10000 nM	1000 to 10000 nM	1000 to 10000 nM	1000 to 10000 nM	1000 to 10000 nM	1000 to 10000 nM
Cn1cc2cc(-c3ccc(-c4ccc(N5CCC(NC6CCC6)C5)nn4)c(O)c3)ncc2n1 (centres unmarked) [Compound 320]	100 to 1000 nM	100 to 1000 nM	100 to 1000 nM	100 to 1000 nM	100 to 1000 nM	100 to 1000 nM	< 100 nM	100 to 1000 nM
COc1cc(-c2ccc(-c3ccc(N4CC[C@@H](NC5(C)CCC5)C4)nn3)c(O)c2)cnn1 [Compound 287, (R)-5-(6-methoxypyridazin-4-yl)-2-(6-(3-((1-methylcyclobutyl)amino)pyrrolidin-1-yl)pyridazin-3-yl)phenol]	< 100 nM	< 100 nM	< 100 nM	< 100 nM	< 100 nM	< 100 nM	< 100 nM	< 100 nM
Cc1nnc(-c2ccc(-c3ccc(N4CC[C@H](NCC5CC5)C4)nn3)c(O)c2)s1 [Compound 414]	100 to 1000 nM	< 100 nM	< 100 nM	100 to 1000 nM	100 to 1000 nM	100 to 1000 nM	< 100 nM	100 to 1000 nM
Oc1cc(-c2cnn3c2CCC3)ccc1-c1ccc(N2CCC(NC3CCC3)C2)nn1 (centres unmarked) [Compound 362]	1000 to 10000 nM	100 to 1000 nM	100 to 1000 nM	100 to 1000 nM	1000 to 10000 nM	1000 to 10000 nM	100 to 1000 nM	100 to 1000 nM
COc1cc(-c2cc(O)c(-c3ccc(N4CC[C@@H](N[C@H]5C[C@@H](F)C5)C4)nn3)cc2F)cnn1 (racemic) [Compound 161, 4-fluoro-5-(6-methoxypyridazin-4-yl)-2-[6-(3-{[(1s,3s)-3-fluorocyclobutyl]amino}pyrrolidin-1-yl)pyridazin-3-yl]phenol]	100 to 1000 nM	100 to 1000 nM	100 to 1000 nM	100 to 1000 nM	100 to 1000 nM	100 to 1000 nM	< 100 nM	100 to 1000 nM
